Results from article PMC3118575 (Bioconjugate chemistry, 2011).

Columns and labels:
[1] = system: MMP-2; assay: In vitro MMP-2 enzyme specificity; assay type: biochemical
[2] = system: MMP- and αvβ3 integrin receptor-positive U87MG tumor; assay: In vivo NIR fluorescence imaging of U87MG tumor-bearing mice; settings: for Clearance from the blood and other organs / Fluorescent signals in the tumor over time: 0.5 nmol injected
[3] = system: U87MG tumor; assay: Ex vivo biodistribution in tumors and organs; set-up: species or system mice; settings: tumors and organs removed after 4 h time point; n = 3
[4] = system: U87MG cells; assay: NIR fluorescence microscopy of fixed U87MG cells; assay type: cell-based, human

With `CCN(CC)c1ccc2nc3ccc(N=Nc4ccc(N(C)CCCC(=O)NCCCC[C@H](NC(=O)CNC(=O)[C@H](CCCNC(=N)N)NC(=O)[C@@H](NC(=O)CNC(=O)[C@H](CC(C)C)NC(=O)[C@@H]5CCCN5C(=O)CNC(=O)CCCCC[N+]5=C(C=CC=CC=C6N(CC)c7ccc8c(S(=O)(=O)O)cc(S(=O)(=O)O)cc8c7C6(C)C)C(C)(C)c6c5ccc5c(S(=O)(=O)O)cc(S(=O)(=O)O)cc65)C(C)C)C(=O)NCC(=O)NCC(=O)NCCCC[C@@H]5NC(=O)[C@@H](Cc6ccc(O)cc6)NC(=O)[C@H](CC(=O)O)NC(=O)CNC(=O)[C@H](CCCNC(=N)N)NC5=O)cc4)cc3[n+](-c3ccccc3)c2c1` [compound 4] the “Recovery of fluorescence at different MMP-2 concentrations” value ([1]; MMP-2 0, 2, 5, 10, 20, 40 nM, 80 min incubation, n = 3) was “dependent on the MMP-2 concentration”, the “Fluorescence recovery in the presence of MMP inhibitor” value ([1]; MMP-2 with homophenylalanine-hydroxamine acid based broad spectrum MMP inhibitor) was “inhibited” and the “NIR fluorescence signal from the tumor with MMP inhibitor” value ([2]; 3 nmol i.v., MMP inhibitor intratumorally injected 30 min before) was “significantly reduced”. The “Tumor uptake with excess unlabeled c(RGDyK)” value ([2]; 30 min post-injection, c(RGDyK) 200 nmol) was “effectively blocked”, the “NIR fluorescent images compared to 6” value ([2]; intravenous, 3 nmol of 4, from 1 h post-injection) was “brighter NIR fluorescent images compared to 6” and the “Visualization of MMP expression in MMP-positive tumor” value ([2]; intravenous, 4 at 3 nmol, imaging for 4 h) was “enabled visualization of MMP expression in an MMP-positive tumor”. For the same compound, the Ex vivo biodistribution [3] was “predominantly activated in the tumors among other organs”.
With `CCN1C(=CC=CC=CC2=[N+](CCCCCC(=O)NCC(=O)N3CCC[C@H]3C(=O)N[C@@H](CC(C)C)C(=O)NCC(=O)N[C@H](C(=O)N[C@@H](CCCNC(=N)N)C(=O)NCC(=O)N[C@@H](CCCCN)C(=O)NCC(=O)NCC(=O)NCCCC[C@@H]3NC(=O)[C@@H](Cc4ccc(O)cc4)NC(=O)[C@H](CC(=O)O)NC(=O)CNC(=O)[C@H](CCCNC(=N)N)NC3=O)C(C)C)c3ccc4c(S(=O)(=O)O)cc(S(=O)(=O)O)cc4c3C2(C)C)C(C)(C)c2c1ccc1c(S(=O)(=O)[O-])cc(S(=O)(=O)O)cc21` [compound 5] the “Binding with receptor blocking by excess c(RGDyK)” value ([4]; 30 min at 37 °C, blocking dose of c(RGDyK) 10 µM) was “significantly decreased binding”, the “Fluorescent signals on cells” value ([4]; 30 min incubation at 37 °C, without blocking) was “strong positive fluorescent signals on the cell membranes” and the “Clearance from the blood and other organs” value ([2]; imaging for 4 h) was “slowly cleared from the blood and other organs”. The “Fluorescent signals in the tumor over time” value ([2]; imaging for 4 h) was “gradually increased fluorescent signals in the tumor”.
In the case of `N=C(N)NCCC[C@@H]1NC(=O)[C@H](CCCCN)NC(=O)[C@@H](Cc2ccc(O)cc2)NC(=O)[C@H](CC(=O)O)NC(=O)CNC1=O` [compound 7, reference compound], the “Clearance from the blood and other organs” value ([2]; imaging for 4 h) was “slowly cleared from the blood and other organs” and the “Fluorescent signals in the tumor over time” value ([2]; imaging for 4 h) was “gradually increased fluorescent signals in the tumor”.
